In patent publication US20260234217A1, “USE OF BMP RECEPTOR ALK1 INHIBITORS IN OSTEOARTHRITIS THERAPIES” (The Regents of the University of California, priority 2023, published 2026):
“Also recorded” adds a separate entry of the source.

What was measured:
Format in all cases: in vivo, mouse
[1] = tested on: osteophytes in the DMM joint; assay: Micro-CT total knee osteophyte volume in DMM mice
Description: Mice (C57BL/6J) were purchased from The Jackson Laboratory. All mice were housed on a 12-hour light/dark cycle with unrestricted access to standard mouse food and water. The DMM model of injury induced OA was performed on mice at 12 weeks of age by opening the joint capsule and transecting the medial meniscotibial ligament in the right knee, destabilizing the medial meniscus(48). A sham operation was performed on the left knee of each mouse by observing the medial meniscotibial ligament but not transecting it. Mice were administered carprofen 5 mg/kg (Zoetis; 1041283) subcutaneously 30 minutes prior to surgery, immediately post-surgery, and 24 hours post-surgery to minimize pain.
Treatments were initiated either 1 day after DMM surgery once a week for 8 weeks, or 1 month after DMM surgery twice a week for 4 weeks. Mice were sacrificed at 20 weeks of age (2 months after surgery). To understand the level of articular cartilage damage 1 month after DMM surgery, a cohort of mice was sacrificed at 16 weeks old (FIG. 4).
Dissected knee joints underwent Micro-CT analysis using the Skyscan 1172 in vivo μCT scanner (Bruker micro-CT, Kontich, Belgium) at 55 kV and 181 μA, with a resolution of 10 μm. […] Average osteophyte volume was analyzed with Prism 9 Software (GraphPad) using two-way ANOVA and Tukey's multiple comparisons test post-hoc. […]

subchondral bone plate = assay: Subchondral bone plate analysis in DMM mice; conditions: after DMM surgery
Excerpt: Dissected knee joints underwent Micro-CT analysis using the Skyscan 1172 in vivo μCT scanner (Bruker micro-CT, Kontich, Belgium) at 55 kV and 181 μA, with a resolution of 10 μm. The raw data was then translated into two-dimensional cross-sectional gray scale image slices using NRecon (Bruker microCT, Kontich, Belgium). Structural parameters were then acquired from the two-dimensional images using a CT Analyzer (CT-AN, v1.10.9.0, Bruker microCT, Kontich, Belgium), including bone volume fraction (BV, mm3). The total knee osteophyte volume from the end of the distal femur to the end of the proximal tibia was compared between knees that underwent sham surgery, DMM surgery treated with PBS, DMM surgery treated with BMP-KI, or DMM surgery treated with ALK1-Fc. Average osteophyte volume was analyzed with Prism 9 Software (GraphPad) using two-way ANOVA and Tukey's multiple comparisons test post-hoc. MicroCT and data analysis was performed by an experienced investigator blinded to genotype/treatment. For each experimental group, five joint sections per animal were analyzed from the medial compartment. […] All quantifications were conducted in Fiji is Just ImageJ (FIJI, version 2.9.0). Quantified subchondral bone thickness was analyzed with Prism 9 Software (GraphPad) using two-way ANOVA and Tukey's multiple comparisons test post-hoc.

adult growth plate = assay: SOFG histology of proximal tibial growth plate in DMM mice; conditions: week 8 after DMM surgery
Excerpt: FIG. 10. […] Sagittal sections of the proximal tibial growth plate were stained with Safranin-O/Fast Green (SOFG) to visualize proteoglycan (red) in the growth plate, subchondral bone (top blue), and trabecular bone (bottom blue) at week 8 after DMM or Sham surgery. […] Alk1^Col2 mice underwent DMM surgery (DMM+Alk1^Col2). WT control mice (lacking Col2a1-Cre) underwent sham surgery and received PBS treatment (Sham+PBS). (n=5/group).
Knee joint samples were harvested and fixed in 4% Paraformaldehyde for 3 days, and subsequently decalcified in formic acid (Statlab; 1414-32) for 3 days and embedded in paraffin. Sagittal sections 7 micrometers in thickness were taken and stained using Safranin-O (Sigma-Aldrich; S8884-25G), fast green (Sigma-Aldrich; F7258-25G), and hematoxylin (Fisherbrand; 245-656) using a standard histology protocol. Images were taken with the Olympus BX60 brightfield microscope using a 10× objective lens. Representative sections throughout the medial and lateral portion of side were chosen for histological analysis, resulting in 5 sections being imaged for both portions of the joint.

[2] = tested on: OA associated pain in DMM mice; assay: Von Frey pain assessment (50% paw withdrawal threshold) in DMM mice
Description: In a functional assessment of BMP-KI and ALK1-Fc, we measured pain and sensitivity in mice following DMM surgery and treatment with BMP-KI and ALK1-Fc using Von Frey analysis. Mice underwent DMM surgery at 3 months of age and were treated with BMP-KI or ALK1Fc once a week for 8 weeks following surgery. Mice underwent Von Frey testing immediately prior to surgery, and each week following surgery. Von Frey testing involved exposure of the injured limb hindfoot plantar surface to a monofilament of a designated caliber (measured in grams). […] The 50% PWT was then calculated mathematically as previously described(54). A higher 50% paw withdrawal threshold indicates less sensitivity in the surgically treated limb. Mice undergoing sham surgery were also tested as a control.
Pain was assessed using the 50% paw withdrawal threshold (PWT) using Von Frey filaments and the up-and-down method as described(86, 87). Each mouse was tested three times by evaluators blinded to treatment group, and the average value was calculated. Whether or not each of the three acquired values is normal is based on the Jarque-Baera test. 4-5 mice were analyzed per treatment condition. Significance was assessed using two-way ANOVA and Tuckey's multiple comparisons test.

COc1cc(-c2cc(-c3ccc(N4CCNCC4)cc3)cnc2C)cc(OC)c1OC [LDN-214117]
osteophyte volume (MicroCT) ([1]; applied after a 1-month delay): significant reduction in osteophyte volume
osteophyte volume (MicroCT) ([1]; treated immediately after surgery, compared to vehicle, week 8): reduced osteophyte volume
total volume of the subchondral plates (subchondral bone plate; week 8, microCT): no significant impact
thickness (thickening) of the subchondral bone plate (subchondral bone plate; week 8, listed as BMP-KI): no significant impact; also recorded: no observed effect
impact on adult growth plate maintenance (adult growth plate): no obvious impact
pain (Von Frey 50% paw withdrawal threshold) ([2]; week 6 after surgery, vs DMM control): did not exhibit an increase in pain
pain (Von Frey) compared to mice that had received sham surgery ([2]; week 8): no significant difference
